Target: GST-tagged-Wee1 kinase (Homo sapiens, UniProt P30291)
Assay: Wee1 time-resolved fluorescence equilibrium binding assay (displacement of Oregon Green-labeled ATP-competitive kinase probe)
Description: Wee1 kinase was assayed using a time-resolved fluorescence equilibrium binding assay monitoring displacement of a rapidly reversible Oregon Green-labeled ATP-competitive kinase probe (N-(2-(2-(2-(4-(4-(5-chloro-4-(2-(1-hydroxycyclobutyl)thiazol-5-yl)-1H-pyrrolo[2,3-b]pyridin-2-yl)phenyl)piperazin-1-yl)ethoxy)ethoxy)ethyl)-2′,7′-difluoro-3′,6′-dihydroxy-3-oxo-3H-spiro[isobenzofuran-1,9′-xanthene]-5-carboxamide) by competitive Wee1 inhibitors.

Chain of GST-tagged-Wee1 kinase (P30291 whole entry): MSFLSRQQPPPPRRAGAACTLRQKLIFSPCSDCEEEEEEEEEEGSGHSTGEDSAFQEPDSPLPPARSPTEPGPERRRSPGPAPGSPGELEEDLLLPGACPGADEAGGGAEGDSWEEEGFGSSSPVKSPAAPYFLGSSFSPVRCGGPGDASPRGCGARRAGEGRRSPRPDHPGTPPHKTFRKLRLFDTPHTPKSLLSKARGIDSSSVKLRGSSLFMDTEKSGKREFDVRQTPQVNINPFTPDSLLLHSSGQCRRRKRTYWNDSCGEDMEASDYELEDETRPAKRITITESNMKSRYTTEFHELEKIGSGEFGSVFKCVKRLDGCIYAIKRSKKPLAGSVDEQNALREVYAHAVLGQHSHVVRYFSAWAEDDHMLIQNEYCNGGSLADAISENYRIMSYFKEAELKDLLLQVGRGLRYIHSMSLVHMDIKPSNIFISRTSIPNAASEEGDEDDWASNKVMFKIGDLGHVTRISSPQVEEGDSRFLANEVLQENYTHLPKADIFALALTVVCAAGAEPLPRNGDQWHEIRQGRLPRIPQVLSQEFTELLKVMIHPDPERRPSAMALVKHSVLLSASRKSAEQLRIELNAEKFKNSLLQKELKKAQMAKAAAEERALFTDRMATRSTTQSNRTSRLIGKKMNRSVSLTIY

Row | Ki [nM] | Structure (SMILES)
1 | 0.01 | CN1CCN(c2ccc(Nc3ncc4c(=O)n(-c5c(Cl)cccc5Cl)nc(-c5cccc(C(=O)O)c5)c4n3)cc2)CC1 [Example 190, 3-[6-(2,6-dichlorophenyl)-2-{[4-(4-methylpiperazin-1-yl)phenyl]amino}-5-oxo-5,6-dihydropyrimido[4,5-d]pyridazin-8-yl]benzoic acid]
2 | 0.03 | CNC(=O)c1cccc(-c2nn(-c3c(Cl)cccc3Cl)c(=O)c3cnc(Nc4ccc(N5CCN(C)CC5)cc4)nc23)c1 [Example 191, 3-[6-(2,6-dichlorophenyl)-2-{[4-(4-methylpiperazin-1-yl)phenyl]amino}-5-oxo-5,6-dihydropyrimido[4,5-d]pyridazin-8-yl]-N-methylbenzamide]
3 | 0.02 | CN1CCN(C(=O)c2cccc(-c3nn(-c4c(Cl)cccc4Cl)c(=O)c4cnc(Nc5ccc(N6CCN(C)CC6)cc5)nc34)c2)CC1 [Example 192, 6-(2,6-dichlorophenyl)-8-{3-[(4-methylpiperazin-1-yl)carbonyl]phenyl}-2-{[4-(4-methylpiperazin-1-yl)phenyl]amino}pyrimido[4,5-d]pyridazin-5(6H)-one]
4 | < 1 | CN1CCN(c2ccc(Nc3ncc4c(=O)n(-c5c(Cl)cccc5Cl)nc(-c5cccc(C(=O)N6CCCCC6)c5)c4n3)cc2)CC1 [Example 194, 6-(2,6-dichlorophenyl)-2-{[4-(4-methylpiperazin-1-yl)phenyl]amino}-8-[3-(piperidin-1-ylcarbonyl)phenyl]pyrimido[4,5-d]pyridazin-5(6H)-one]
5 | 230 | C=CCn1nc(C2CC(F)(F)C2)c2nc(Nc3ccc(N4CCN(C)CC4)cc3)ncc2c1=O [Example 196, 8-(3,3-difluorocyclobutyl)-2-{[4-(4-methylpiperazin-1-yl)phenyl]amino}-6-(prop-2-en-1-yl)pyrimido[4,5-d]pyridazin-5(6H)-one]
6 | 100 | CN1CCN(c2ccc(Nc3ncc4c(=O)n(-c5ccccn5)nc(C5CC(F)(F)C5)c4n3)cc2)CC1 [Example 197, 8-(3,3-difluorocyclobutyl)-2-{[4-(4-methylpiperazin-1-yl)phenyl]amino}-6-(pyridin-2-yl)pyrimido[4,5-d]pyridazin-5(6H)-one]
7 | 25 | CN1CCN(c2ccc(Nc3ncc4c(=O)n(-c5ccccc5F)nc(C5CC(F)(F)C5)c4n3)cc2)CC1 [Example 198, 8-(3,3-difluorocyclobutyl)-6-(2-fluorophenyl)-2-{[4-(4-methylpiperazin-1-yl)phenyl]amino}pyrimido[4,5-d]pyridazin-5(6H)-one]
8 | 82 | CN1CCN(c2ccc(Nc3ncc4c(=O)n(-c5cccc(F)c5)nc(C5CC(F)(F)C5)c4n3)cc2)CC1 [Example 199, 8-(3,3-difluorocyclobutyl)-6-(3-fluorophenyl)-2-{[4-(4-methylpiperazin-1-yl)phenyl]amino}pyrimido[4,5-d]pyridazin-5(6H)-one]
9 | 0.3 | CN1CCN(c2ccc(Nc3ncc4c(=O)n(-c5c(Cl)cccc5Cl)nc(-c5cnn(CCCl)c5)c4n3)cc2)CC1 [Example 200, 8-[1-(2-chloroethyl)-1H-pyrazol-4-yl]-6-(2,6-dichlorophenyl)-2-{[4-(4-methylpiperazin-1-yl)phenyl]amino}pyrimido[4,5-d]pyridazin-5(6H)-one]
10 | 0.2 | C=Cn1cc(-c2nn(-c3c(Cl)cccc3Cl)c(=O)c3cnc(Nc4ccc(N5CCN(C)CC5)cc4)nc23)cn1 [Example 201, 6-(2,6-dichlorophenyl)-8-(1-ethenyl-1H-pyrazol-4-yl)-2-{[4-(4-methylpiperazin-1-yl)phenyl]amino}pyrimido[4,5-d]pyridazin-5(6H)-one]
11 | 0.3 | CCNCCn1cc(-c2nn(-c3c(Cl)cccc3Cl)c(=O)c3cnc(Nc4ccc(N5CCN(C)CC5)cc4)nc23)cn1 [Example 202, 6-(2,6-dichlorophenyl)-8-{1-[2-(ethylamino)ethyl]-1H-pyrazol-4-yl}-2-{[4-(4-methylpiperazin-1-yl)phenyl]amino}pyrimido[4,5-d]pyridazin-5(6H)-one]
12 | 0.2 | CN1CCN(c2ccc(Nc3ncc4c(=O)n(-c5c(Cl)cccc5Cl)nc(-c5cncn5C)c4n3)cc2)CC1 [Example 203, 6-(2,6-dichlorophenyl)-8-(1-methyl-1H-imidazol-5-yl)-2-{[4-(4-methylpiperazin-1-yl)phenyl]amino}pyrimido[4,5-d]pyridazin-5(6H)-one]
13 | 2 | CN(C)Cc1ccc(Nc2ncc3c(=O)n(-c4ccccc4Cl)nc(-c4ccccc4)c3n2)cc1 [Example 204, 6-(2-chlorophenyl)-2-({4-[(dimethylamino)methyl]phenyl}amino)-8-phenylpyrimido[4,5-d]pyridazin-5(6H)-one]
14 | 0.2 | Cc1cc(Nc2ncc3c(=O)n(-c4ccccc4Cl)nc(-c4ccccc4)c3n2)ccc1N1CCN(C(C)C)CC1 [Example 205, 6-(2-chlorophenyl)-2-({3-methyl-4-[4-(propan-2-yl)piperazin-1-yl]phenyl}amino)-8-phenylpyrimido[4,5-d]pyridazin-5(6H)-one]
15 | 0.2 | Cc1cc(Nc2ncc3c(=O)n(-c4ccccc4Cl)nc(-c4ccccc4)c3n2)ccc1N1CCCN(C(C)C)CC1 [Example 206, 6-(2-chlorophenyl)-2-({3-methyl-4-[4-(propan-2-yl)-1,4-diazepan-1-yl]phenyl}amino)-8-phenylpyrimido[4,5-d]pyridazin-5(6H)-one]
16 | 0.1 | COc1cc(Nc2ncc3c(=O)n(-c4ccccc4Cl)nc(-c4ccccc4)c3n2)ccc1N1CCN(C(C)C)CC1 [Example 207, 6-(2-chlorophenyl)-2-({3-methoxy-4-[4-(propan-2-yl)piperazin-1-yl]phenyl}amino)-8-phenylpyrimido[4,5-d]pyridazin-5(6H)-one]
17 | 2 | Cc1ccccc1-n1nc(-c2cccs2)c2nc(Nc3ccc(CN(C)C)cc3)ncc2c1=O [Example 208, 2-({4-[(dimethylamino)methyl]phenyl}amino)-6-(2-methylphenyl)-8-(thiophen-2-yl)pyrimido[4,5-d]pyridazin-5(6H)-one]
18 | 0.8 | CN(C)Cc1ccc(Nc2ncc3c(=O)n(-c4ccccc4Cl)nc(-c4cccs4)c3n2)cc1 [Example 209, 6-(2-chlorophenyl)-2-({4-[(dimethylamino)methyl]phenyl}amino)-8-(thiophen-2-yl)pyrimido[4,5-d]pyridazin-5(6H)-one]
19 | 33 | C=CCn1nc(-c2cccs2)c2nc(Nc3ccc(CN(C)C)cc3)ncc2c1=O [Example 210, 2-({4-[(dimethylamino)methyl]phenyl}amino)-6-(prop-2-en-1-yl)-8-(thiophen-2-yl)pyrimido[4,5-d]pyridazin-5(6H)-one]
20 | 0.6 | CNCCn1cc(-c2nn(-c3c(Cl)cccc3Cl)c(=O)c3cnc(Nc4ccc(N5CCN(C)CC5)cc4)nc23)cn1 [Example 211, 6-(2,6-dichlorophenyl)-8-{1-[2-(methylamino)ethyl]-1H-pyrazol-4-yl}-2-{[4-(4-methylpiperazin-1-yl)phenyl]amino}pyrimido[4,5-d]pyridazin-5(6H)-one]
21 | 0.6 | CN(C)CCn1cc(-c2nn(-c3c(Cl)cccc3Cl)c(=O)c3cnc(Nc4ccc(N5CCN(C)CC5)cc4)nc23)cn1 [Example 212, 6-(2,6-dichlorophenyl)-8-{1-[2-(dimethylamino)ethyl]-1H-pyrazol-4-yl}-2-{[4-(4-methylpiperazin-1-yl)phenyl]amino}pyrimido[4,5-d]pyridazin-5(6H)-one]

Reference: patent US8796289B2 (AbbVie Inc., priority 2011, dated 2014)
